Data set [1] can be described thus: clinical. Set-up: species or system patients. The following applies: human, in vivo. The text has this: The optimal dose and schedule of gimatecan stems mainly from the putative therapeutic window identified from the PK/PD analysis of completed phase I data. The target range of cumulative gimatecan cycle exposure (AUC 5,000-10,000 (ng)(hr)/mL) was selected because it produces partial responses and yet is below the exposure where grade III/IV neutropenia and thrombocytopenia adverse events became evident (FIG. 1). […] This may explain why toxicity could not be differentiated among the three schedules; all three schedules exceeded the putative effective daily exposure and were in a potentially toxic range. […] The flat dose is dosed every third day, or once every three days, or every 72 hours, or at one half-life to avoid potential accumulation. The starting doses are chosen to target a systemic exposure of 200-400 (ng)(hr)/mL (the “therapeutic window”) once every three days.

Data set [2] in a line: Clinical pharmacokinetics (disposition) of oral gimatecan in phase I patients with refractory malignancies. It is filed as in vivo. How it is done:
The disposition of oral gimatecan is evaluated in patients with refractory malignancies administered on a daily schedule for 5, 10, or 15 consecutive days or a weekly schedule for 3 weeks of a 28 day cycle. The disposition of gimatecan using these four schedules are depicted in FIGS. 3 (a-d). Clinical pharmacokinetics is assessed on the first and last days of the first cycle of daily dosing. […] However, patients were dosed based on their body surface area. Patients who responded to gimatecan had taken 0.45 mg, 0.9 mg, 1.1 mg or 1.6 mg which made it difficult to pick an effective dose.

Results on 1 molecule are retold here after US20080262014A1, “Use of Camptothecin Derivatives for the Treatment of Proliferative Diseases in a Fixed Dosing Regimen” (priority 2004, published 2008).

In general, AUC refers to the area under the concentration-time curve, a measure of exposure. The half-life is the time needed for the level to fall by half in the phase considered.

“Also recorded” adds a separate entry of the source.

For `CC[C@@]1(O)C(=O)OCc2c1cc1n(c2=O)Cc2c-1nc1ccccc1c2/C=N/OC(C)(C)C` [gimatecan, 7-(t-butoxy)imino methyl camptothecin], in data set [1], the AUC at 1 day was 200 to 400 ng·h/mL. In addition, the AUC at 1 cycle in data set [1] (iv) lay within 5000 to 10000 ng·h/mL. The “body surface area as predictor of gimatecan clearance” value in data set [2] (78 patients receiving four schedules) is “lack of correlation; also recorded: not a good predictor; also recorded: not predicted by body surface area”. In data set [2] (human, in vivo, oral, estimated from 10 patients receiving the weekly schedule, read-out: terminal harmonic mean half-life (converted)), the half-life was 86 h. In addition, the “apparent oral clearance, dependence on dose” value in data set [2] (oral, four schedules) is “independent of dose”. Moreover, the drug accumulation entry in data set [2] (weekly and daily schedule) is listed as “Drug accumulation is observed”.
